Test results from US9458137B2, “Substituted indol-5-ol derivatives and their therapeutical applications” (NantBioScience, Inc., priority 2012, dated 2016).

Tests used:
Test in all cases: Kinase panel activity
Type in all cases: biochemical
Conditions in all cases: 0.1 μM, ATP Km
DMPK(h) = DMPK(h) (Homo sapiens, UniProt Q09013)
Description: (§1) The effect of NTW-3475 on kinase activity was tested for a wide range of kinases and is shown in Table 2: Summary Sheet, Activity % ATP Concentration: Km

PKCι(h) = PKCι(h) (Homo sapiens, UniProt P41743)
Description: as §1

JNK1α1(h) = JNK1α1(h) (Homo sapiens, UniProt P45983)
Description: as §1

EphA2(h) = target: T1, EphA2(h) (Homo sapiens, UniProt P29317)
T1 construct: purchased Millipore (KinaseProfiler service)
Description: as §1

Aurora-C(h) = Aurora-C(h) (Homo sapiens, UniProt Q9UQB9)
Sequence of Aurora-C(h) (Q9UQB9 whole entry): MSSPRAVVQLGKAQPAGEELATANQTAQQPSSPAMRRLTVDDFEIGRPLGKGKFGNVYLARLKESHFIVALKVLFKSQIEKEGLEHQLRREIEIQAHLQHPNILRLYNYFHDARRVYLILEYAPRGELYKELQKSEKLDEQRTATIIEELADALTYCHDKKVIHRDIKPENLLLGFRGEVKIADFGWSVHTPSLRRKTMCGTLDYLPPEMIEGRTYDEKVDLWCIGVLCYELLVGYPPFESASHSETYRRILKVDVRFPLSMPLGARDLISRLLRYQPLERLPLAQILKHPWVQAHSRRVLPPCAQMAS
Description: as §1

EGFR(h) = target: T2, EGFR(h) (Homo sapiens, UniProt P00533)
T2 construct: purchased Millipore (KinaseProfiler service)
Description: as §1

CHK1(h) = CHK1(h) (Homo sapiens, UniProt O14757)
Sequence of CHK1(h) (O14757 whole entry): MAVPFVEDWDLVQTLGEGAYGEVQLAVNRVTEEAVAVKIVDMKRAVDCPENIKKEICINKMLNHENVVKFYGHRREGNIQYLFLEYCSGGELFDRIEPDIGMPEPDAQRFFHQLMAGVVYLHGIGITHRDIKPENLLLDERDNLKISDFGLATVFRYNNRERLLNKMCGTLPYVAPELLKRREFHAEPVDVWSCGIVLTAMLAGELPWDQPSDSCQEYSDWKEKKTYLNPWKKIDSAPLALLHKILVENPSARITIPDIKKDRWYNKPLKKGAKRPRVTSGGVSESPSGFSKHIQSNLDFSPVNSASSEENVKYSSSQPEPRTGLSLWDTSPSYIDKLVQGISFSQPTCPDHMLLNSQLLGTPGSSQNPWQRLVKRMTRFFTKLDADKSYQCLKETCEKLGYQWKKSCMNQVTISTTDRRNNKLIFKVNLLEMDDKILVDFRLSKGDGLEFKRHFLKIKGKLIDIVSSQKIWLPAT
Description: as §1

ROCK-II(r) = target: T3, ROCK-II(r) (Rattus norvegicus, UniProt Q62868)
T3 construct: purchased Millipore (KinaseProfiler service)
Description: as §1

MST2(h) = MST2(h) (Homo sapiens, UniProt Q13188)
Description: as §1

GCK(h) = GCK(h) (Homo sapiens, UniProt Q12851)
Sequence of GCK(h) (Q12851 whole entry): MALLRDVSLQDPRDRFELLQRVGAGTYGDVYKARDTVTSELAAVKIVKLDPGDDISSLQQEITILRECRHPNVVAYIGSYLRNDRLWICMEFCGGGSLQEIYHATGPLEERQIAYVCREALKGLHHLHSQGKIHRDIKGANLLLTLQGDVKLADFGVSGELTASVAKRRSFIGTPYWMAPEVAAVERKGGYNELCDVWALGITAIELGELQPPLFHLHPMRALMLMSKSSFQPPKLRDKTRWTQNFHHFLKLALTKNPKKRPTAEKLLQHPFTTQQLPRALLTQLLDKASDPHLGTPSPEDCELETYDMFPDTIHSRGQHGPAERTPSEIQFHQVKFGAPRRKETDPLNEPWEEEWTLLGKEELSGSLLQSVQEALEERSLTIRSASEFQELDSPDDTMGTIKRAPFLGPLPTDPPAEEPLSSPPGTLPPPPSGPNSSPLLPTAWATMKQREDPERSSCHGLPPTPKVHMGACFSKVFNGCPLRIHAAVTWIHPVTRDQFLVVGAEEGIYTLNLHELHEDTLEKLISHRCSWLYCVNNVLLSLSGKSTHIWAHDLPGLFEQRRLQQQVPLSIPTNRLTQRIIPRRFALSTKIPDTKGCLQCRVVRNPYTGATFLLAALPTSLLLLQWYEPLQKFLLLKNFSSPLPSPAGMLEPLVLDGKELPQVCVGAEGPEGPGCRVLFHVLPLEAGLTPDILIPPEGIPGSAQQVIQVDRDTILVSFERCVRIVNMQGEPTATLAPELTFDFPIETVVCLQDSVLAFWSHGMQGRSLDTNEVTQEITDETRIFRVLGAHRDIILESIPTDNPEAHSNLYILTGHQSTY
Description: as §1

Ret(h) = target: T4, Ret(h) (Homo sapiens, UniProt P07949)
T4 construct: purchased Millipore (KinaseProfiler service)
Description: as §1

PKCγ(h) = PKCγ(h) (Homo sapiens, UniProt P05129)
Description: as §1

MAPKAP-K3(h) = target: T5, MAPKAP-K3(h) (Homo sapiens, UniProt Q16644)
T5 construct: purchased Millipore (KinaseProfiler service)
Description: as §1

FGFR4(h) = FGFR4(h) (Homo sapiens, UniProt P22455)
Description: as §1

Snk(h) = target: T6, Snk(h) (Homo sapiens, UniProt Q9NYY3)
T6 construct: purchased Millipore (KinaseProfiler service)
Description: as §1

Lck(h) activated = Lck(h) activated (Homo sapiens, UniProt P06239)
Description: as §1

JNK3(h) = JNK3(h) (Homo sapiens, UniProt P53779)
Sequence of JNK3(h) (P53779 whole entry): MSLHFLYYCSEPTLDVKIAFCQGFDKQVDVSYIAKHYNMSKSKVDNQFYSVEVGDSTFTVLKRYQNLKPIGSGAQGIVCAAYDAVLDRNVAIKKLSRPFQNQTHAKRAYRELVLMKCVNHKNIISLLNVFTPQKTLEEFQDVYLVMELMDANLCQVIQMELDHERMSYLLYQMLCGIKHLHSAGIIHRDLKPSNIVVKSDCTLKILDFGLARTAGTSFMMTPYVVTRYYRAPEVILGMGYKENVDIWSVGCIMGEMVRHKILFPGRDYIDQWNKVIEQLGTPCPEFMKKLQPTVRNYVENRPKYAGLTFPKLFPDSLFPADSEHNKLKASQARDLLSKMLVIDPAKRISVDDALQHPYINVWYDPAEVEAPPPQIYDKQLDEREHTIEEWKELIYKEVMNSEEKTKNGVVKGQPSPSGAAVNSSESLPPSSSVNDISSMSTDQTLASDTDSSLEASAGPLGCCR
Description: as §1

Bmx(h) = Bmx(h) (Homo sapiens, UniProt P51813)
Description: as §1

GSK3β(h) = GSK3β(h) (Homo sapiens, UniProt P49841)
Description: as §1

CDK5/p35(h) = CDK5/p35(h) (Homo sapiens, UniProt Q00535)
Sequence of CDK5/p35(h) (Q00535 whole entry): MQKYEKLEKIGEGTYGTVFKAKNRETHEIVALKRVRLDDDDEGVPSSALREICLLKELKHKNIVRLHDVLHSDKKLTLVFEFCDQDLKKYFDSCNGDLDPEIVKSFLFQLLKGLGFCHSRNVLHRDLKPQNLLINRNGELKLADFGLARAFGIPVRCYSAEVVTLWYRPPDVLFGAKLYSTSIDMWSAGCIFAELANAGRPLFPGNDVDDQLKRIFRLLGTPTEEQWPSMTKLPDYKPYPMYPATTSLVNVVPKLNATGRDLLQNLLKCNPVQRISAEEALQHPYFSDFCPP
Sequence of CDK5/p35(h) (Q15078 whole entry partner): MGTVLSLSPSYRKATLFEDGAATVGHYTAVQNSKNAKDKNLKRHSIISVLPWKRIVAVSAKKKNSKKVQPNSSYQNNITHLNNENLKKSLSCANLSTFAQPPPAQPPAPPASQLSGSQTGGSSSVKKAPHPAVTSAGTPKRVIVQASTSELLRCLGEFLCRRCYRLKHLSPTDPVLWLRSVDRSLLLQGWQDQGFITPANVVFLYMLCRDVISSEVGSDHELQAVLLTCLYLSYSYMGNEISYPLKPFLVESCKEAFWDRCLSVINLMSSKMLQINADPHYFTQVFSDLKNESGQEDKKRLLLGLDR
Description: as §1

Pim-1(h) = Pim-1(h) (Homo sapiens, UniProt P11309)
Description: as §1

B1k(h) = B1k(h) (Homo sapiens, UniProt P51451)
Sequence of B1k(h) (P51451 whole entry): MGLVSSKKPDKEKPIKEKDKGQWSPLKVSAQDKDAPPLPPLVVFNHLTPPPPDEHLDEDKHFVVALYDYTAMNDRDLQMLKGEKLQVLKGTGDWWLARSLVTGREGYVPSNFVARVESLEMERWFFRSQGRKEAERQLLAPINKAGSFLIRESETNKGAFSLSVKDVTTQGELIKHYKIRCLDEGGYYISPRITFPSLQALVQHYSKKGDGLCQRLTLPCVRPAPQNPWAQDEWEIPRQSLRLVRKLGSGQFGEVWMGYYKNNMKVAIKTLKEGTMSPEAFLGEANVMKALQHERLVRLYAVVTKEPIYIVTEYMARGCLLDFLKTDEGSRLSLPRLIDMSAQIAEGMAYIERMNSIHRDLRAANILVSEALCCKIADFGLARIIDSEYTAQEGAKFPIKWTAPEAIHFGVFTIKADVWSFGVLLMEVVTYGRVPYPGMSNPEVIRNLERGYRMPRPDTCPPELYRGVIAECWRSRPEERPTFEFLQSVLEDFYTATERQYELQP
Description: as §1

ZIPK(h) = ZIPK(h) (Homo sapiens, UniProt O43293)
Sequence of ZIPK(h) (O43293 whole entry): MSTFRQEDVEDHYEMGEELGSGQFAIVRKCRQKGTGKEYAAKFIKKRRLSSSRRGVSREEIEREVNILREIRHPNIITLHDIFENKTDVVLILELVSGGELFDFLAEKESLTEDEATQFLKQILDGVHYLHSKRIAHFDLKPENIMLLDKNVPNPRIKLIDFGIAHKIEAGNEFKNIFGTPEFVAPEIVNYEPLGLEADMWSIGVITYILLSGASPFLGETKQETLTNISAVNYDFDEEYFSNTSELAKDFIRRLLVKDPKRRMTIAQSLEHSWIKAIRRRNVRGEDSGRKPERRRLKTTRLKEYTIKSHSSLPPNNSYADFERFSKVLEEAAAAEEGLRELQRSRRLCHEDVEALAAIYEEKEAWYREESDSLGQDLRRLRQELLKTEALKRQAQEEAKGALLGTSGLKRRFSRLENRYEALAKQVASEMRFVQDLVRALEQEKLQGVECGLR
Description: as §1

CLK3(h) = CLK3(h) (Homo sapiens, UniProt P49761)
Description: as §1

Fgr(h) = Fgr(h) (Homo sapiens, UniProt P09769)
Description: as §1

CK1γ2(h) = CK1γ2(h) (Homo sapiens, UniProt P78368)
Description: as §1

CK1γ1(h) = CK1γ1(h) (Homo sapiens, UniProt Q9HCP0)
Sequence of CK1γ1(h) (Q9HCP0 whole entry): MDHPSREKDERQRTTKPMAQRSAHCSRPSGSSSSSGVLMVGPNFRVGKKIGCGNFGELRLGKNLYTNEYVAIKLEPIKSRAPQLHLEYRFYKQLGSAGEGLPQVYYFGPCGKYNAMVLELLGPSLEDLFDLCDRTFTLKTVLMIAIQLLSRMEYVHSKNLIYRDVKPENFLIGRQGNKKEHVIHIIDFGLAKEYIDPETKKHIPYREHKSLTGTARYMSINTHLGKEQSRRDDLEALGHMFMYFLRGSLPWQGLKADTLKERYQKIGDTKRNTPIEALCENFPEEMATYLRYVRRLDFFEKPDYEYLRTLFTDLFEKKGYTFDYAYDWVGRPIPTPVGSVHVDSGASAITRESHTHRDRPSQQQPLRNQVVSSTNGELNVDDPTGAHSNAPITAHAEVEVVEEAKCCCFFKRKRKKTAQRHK
Description: as §1

RIPK2(h) = target: T7, RIPK2(h) (Homo sapiens, UniProt O43353)
T7 construct: purchased Millipore (KinaseProfiler service)
Description: as §1

Ab1(M351T)(h) = Ab1(M351T)(h) (Homo sapiens, UniProt P00519, M351T)
Description: as §1

ZAP-70(h) = ZAP-70(h) (Homo sapiens, UniProt P43403)
Description: as §1

Ax1(h) = Ax1(h) (Homo sapiens, UniProt P30530)
Description: as §1

Rsk2(h) = target: T8, Rsk2(h) (Homo sapiens, UniProt P51812)
T8 construct: purchased Millipore (KinaseProfiler service)
Description: as §1

TSSK2(h) = target: T9, TSSK2(h) (Homo sapiens, UniProt Q96PF2)
T9 construct: purchased Millipore (KinaseProfiler service)
Description: as §1

Fer(h) = target: T10, Fer(h) (Homo sapiens, UniProt P16591)
T10 construct: purchased Millipore (KinaseProfiler service)
Description: as §1

FGFR2(N549H)(h) = FGFR2(N549H)(h) (Homo sapiens, UniProt P21802, N549H)
Description: as §1

GSK3α(h) = GSK3α(h) (Homo sapiens, UniProt P49840)
Description: as §1

EphB3(h) = target: T11, EphB3(h) (Homo sapiens, UniProt P54753)
T11 construct: purchased Millipore (KinaseProfiler service)
Description: as §1

TrkB(h) = target: T12, TrkB(h) (Homo sapiens, UniProt Q16620)
T12 construct: purchased Millipore (KinaseProfiler service)
Description: as §1

PKCμ(h) = PKCμ(h) (Homo sapiens, UniProt Q15139)
Sequence of PKCμ(h) (Q15139 whole entry): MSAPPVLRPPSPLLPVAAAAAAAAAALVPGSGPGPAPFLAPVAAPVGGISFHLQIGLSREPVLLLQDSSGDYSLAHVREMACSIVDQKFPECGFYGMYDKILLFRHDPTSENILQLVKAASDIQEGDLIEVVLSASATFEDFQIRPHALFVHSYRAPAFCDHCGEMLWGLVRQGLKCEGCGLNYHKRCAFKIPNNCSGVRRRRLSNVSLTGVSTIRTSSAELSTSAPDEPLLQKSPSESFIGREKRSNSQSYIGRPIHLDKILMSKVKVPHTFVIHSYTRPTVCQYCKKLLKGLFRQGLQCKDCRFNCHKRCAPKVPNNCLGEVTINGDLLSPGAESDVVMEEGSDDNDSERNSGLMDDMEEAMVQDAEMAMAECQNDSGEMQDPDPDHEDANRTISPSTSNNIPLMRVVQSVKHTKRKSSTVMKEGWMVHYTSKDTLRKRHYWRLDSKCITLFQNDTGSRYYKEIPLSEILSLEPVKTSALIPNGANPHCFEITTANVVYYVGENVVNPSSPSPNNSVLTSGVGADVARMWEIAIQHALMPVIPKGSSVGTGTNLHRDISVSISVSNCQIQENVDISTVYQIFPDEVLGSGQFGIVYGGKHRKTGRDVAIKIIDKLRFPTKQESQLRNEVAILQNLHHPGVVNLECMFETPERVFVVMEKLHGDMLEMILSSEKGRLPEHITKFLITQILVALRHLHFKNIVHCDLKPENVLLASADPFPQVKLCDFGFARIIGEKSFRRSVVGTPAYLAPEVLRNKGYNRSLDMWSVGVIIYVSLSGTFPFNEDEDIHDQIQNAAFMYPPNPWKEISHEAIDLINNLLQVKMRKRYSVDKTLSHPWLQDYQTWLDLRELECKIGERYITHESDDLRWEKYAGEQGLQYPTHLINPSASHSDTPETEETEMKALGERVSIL
Description: as §1

PKCζ(h) = PKCζ(h) (Homo sapiens, UniProt Q05513)
Description: as §1

Cc1cc2c(F)c(Oc3nc(Nc4cc(C5CC5)[nH]n4)cc(N4CCN(C)CC4)n3)cc(F)c2[nH]1 [NTW-3475]
Activity % (DMPK(h)): 102% | Activity % (PKCι(h)): 105% | Activity % (JNK1α1(h)): 92% | Activity % (EphA2(h)): −1% | Activity % (Aurora-C(h)): 21% | Activity % (EGFR(h)): 108% | Activity % (CHK1(h)): 113% | Activity % (ROCK-II(r)): 42% | Activity % (MST2(h)): 79% | Activity % (GCK(h)): 13% | Activity % (Ret(h)): −1% | Activity % (PKCγ(h)): 102% | Activity % (MAPKAP-K3(h)): 103% | Activity % (FGFR4(h)): 19% | Activity % (Snk(h)): 97% | Activity % (Lck(h) activated): −1% | Activity % (JNK3(h)): 111% | Activity % (Bmx(h)): 1% | Activity % (GSK3β(h)): 106% | Activity % (CDK5/p35(h)): 77% | Activity % (Pim-1(h)): 114% | Activity % (B1k(h)): 9% | Activity % (ZIPK(h)): 104% | Activity % (CLK3(h)): 87% | Activity % (Fgr(h)): 2% | Activity % (CK1γ2(h)): 134% | Activity % (CK1γ1(h)): 96% | Activity % (RIPK2(h)): 90% | Activity % (Ab1(M351T)(h)): −2% | Activity % (ZAP-70(h)): 110% | Activity % (Ax1(h)): 34% | Activity % (Rsk2(h)): 65% | Activity % (TSSK2(h)): 84% | Activity % (Fer(h)): 69% | Activity % (FGFR2(N549H)(h)): −1% | Activity % (GSK3α(h)): 96% | Activity % (EphB3(h)): 99% | Activity % (TrkB(h)): 1% | Activity % (PKCμ(h)): 95% | Activity % (PKCζ(h)): 109%
